Experimental data reported in patent publication US12655116B2, “Substituted isophthalic acid diamides” (Bayer Aktiengesellschaft, priority 2020, dated 2026).

What was measured:
[1] = system: SETVI; test: Pre-emergence herbicidal action against SETVI; assay type: in vivo, Setaria viridis; settings: Setaria viridis, 504 h; for pest or weed control at 20 g/ha: dosage 20 g/ha; for pest or weed control at 80 g/ha: dosage 80 g/ha
How it was run: (§1)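 Sandy loam pots, seeds covered with soil, then surface-treated with WP or EC formulations at 600–800 l/ha water plus 0.2% wetting agent. Greenhouse, 3 weeks. Percent damage vs untreated controls.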

[2] = system: HORMU; test: Post-emergence herbicidal action against HORMU; assay type: in vivo, Hordeum murinum; settings: Hordeum murinum, 504 h, dosage 20 g/ha
How it was run: (§2)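 Herbicidal action is a visual percentage rating (0% = as untreated control, 100% = plants dead) made roughly 3 weeks after treatment. Plants were grown in sandy loam in the greenhouse and treated at the one-leaf stage, 2 to 3 weeks post-sowing. Treatment was a foliar spray of wettable-powder or emulsion-concentrate formulations at 600 to 800 l/ha water plus 0.2% wetting agent.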

[3] = system: AMARE; test: Pre-emergence herbicidal action against AMARE; assay type: in vivo, Amaranthus retroflexus; settings: Amaranthus retroflexus, 504 h, scored visually after 3 weeks vs untreated controls, 100% = plants have died, 0% = like control plants
How it was run: as §1

[4] = system: ECHCG; test: Post-emergence herbicidal action against ECHCG; assay type: in vivo, Echinochloa crus-galli; settings: Echinochloa crus-galli, 504 h; for pest or weed control at 20 g/ha: dosage 20 g/ha
How it was run: as §2

[5] = system: STEME; test: Pre-emergence herbicidal action against STEME; assay type: in vivo, Stellaria media; settings: Stellaria media, 504 h; for pest or weed control at 20 g/ha: dosage 20 g/ha; for pest or weed control at 80 g/ha: dosage 80 g/ha
How it was run: as §1

[6] = system: AVEFA; test: Post-emergence herbicidal action against AVEFA; assay type: in vivo, Avena fatua; settings: Avena fatua, 504 h, 20 g/ha, visual assessment about 3 weeks after treatment, 100% = plants have died, 0% = like control plants
How it was run: as §2

[7] = system: ECHCG; test: Pre-emergence herbicidal action against ECHCG; assay type: in vivo, Echinochloa crus-galli; settings: Echinochloa crus-galli, 504 h, 80 g/ha
How it was run: as §1

[8] = system: VERPE; test: Post-emergence herbicidal action against VERPE; assay type: in vivo, Veronica persica; settings: Veronica persica, 504 h, 20 g/ha
How it was run: as §2

[9] = system: ALOMY; test: Pre-emergence herbicidal action against ALOMY; assay type: in vivo, Alopecurus myosuroides; settings: Alopecurus myosuroides, 504 h; 80 g/ha, pre-emergence, scored visually after 3 weeks vs untreated controls (100% = plants have died, 0% = like control plants)
How it was run: as §1

[10] = system: VIOTR; test: Pre-emergence herbicidal action against VIOTR; assay type: in vivo, Viola tricolor; settings: Viola tricolor, 504 h; for pest or weed control at 20 g/ha: dosage 20 g/ha; for pest or weed control at 80 g/ha: dosage 80 g/ha
How it was run: as §1

[11] = system: PHBPU; test: Pre-emergence herbicidal action against PHBPU; assay type: in vivo, Pharbitis purpurea; settings: Ipomoea purpurea, 504 h; for pest or weed control at 80 g/ha: dosage 80 g/ha
How it was run: as §1

[12] = system: ALOMY; test: Post-emergence herbicidal action against ALOMY; assay type: in vivo, Alopecurus myosuroides; settings: Alopecurus myosuroides, 504 h, dosage 20 g/ha, visual assessment about 3 weeks after treatment vs untreated controls
How it was run: as §2

[13] = system: STEME; test: Post-emergence herbicidal action against STEME; assay type: in vivo, Stellaria media; settings: Stellaria media, 504 h; for pest or weed control at 5 g/ha: dosage 5 g/ha
How it was run: as §2

[14] = system: MATIN; test: Pre-emergence herbicidal action against MATIN; assay type: in vivo, Matricaria inodora; settings: Tripleurospermum inodorum, 504 h; for pest or weed control at 20 g/ha: dosage 20 g/ha; for pest or weed control at 80 g/ha: dosage 80 g/ha
How it was run: as §1

[15] = system: LOLRI; test: Pre-emergence herbicidal action against LOLRI; assay type: in vivo, Lolium rigidum; settings: Lolium rigidum, 504 h, 80 g/ha
How it was run: as §1

[16] = system: VERPE; test: Pre-emergence herbicidal action against VERPE; assay type: in vivo, Veronica persica; settings: Veronica persica, 504 h
How it was run: as §1

[17] = system: AVEFA; test: Pre-emergence herbicidal action against AVEFA; assay type: in vivo, Avena fatua; settings: Avena fatua, 504 h, pre-emergence
How it was run: as §1

[18] = system: DIGSA; test: Post-emergence herbicidal action against DIGSA; assay type: in vivo, Digitaria sanguinalis; settings: Digitaria sanguinalis, 504 h
How it was run: as §2

[19] = system: HORMU; test: Pre-emergence herbicidal action against HORMU; assay type: in vivo, Hordeum murinum; settings: Hordeum murinum, 504 h; 80 g/ha, pre-emergence
How it was run: as §1

[20] = system: POLCO; test: Post-emergence herbicidal action against POLCO; assay type: in vivo, Polygonum convolvulus; settings: Fallopia convolvulus, 504 h, dosage 20 g/ha
How it was run: as §2

[21] = system: VIOTR; test: Post-emergence herbicidal action against VIOTR; assay type: in vivo, Viola tricolor; settings: Viola tricolor, 504 h
How it was run: as §2

[22] = system: AMARE; test: Post-emergence herbicidal action against AMARE; assay type: in vivo, Amaranthus retroflexus; settings: Amaranthus retroflexus, 504 h, 20 g/ha, visual assessment about 3 weeks after treatment, 100% = plants have died, 0% = like control plants
How it was run: as §2

[23] = system: SETVI; test: Post-emergence herbicidal action against SETVI; assay type: in vivo, Setaria viridis; settings: Setaria viridis, 504 h; for pest or weed control at 5 g/ha: dosage 5 g/ha; for pest or weed control at 20 g/ha: dosage 20 g/ha
How it was run: as §2

[24] = system: MATIN; test: Post-emergence herbicidal action against MATIN; assay type: in vivo, Matricaria inodora; settings: Tripleurospermum inodorum, 504 h; for pest or weed control at 5 g/ha: dosage 5 g/ha; for pest or weed control at 20 g/ha: dosage 20 g/ha
How it was run: as §2

[25] = system: PHBPU; test: Post-emergence herbicidal action against PHBPU; assay type: in vivo, Pharbitis purpurea; settings: Ipomoea purpurea, 504 h; for pest or weed control at 20 g/ha: dosage 20 g/ha
How it was run: as §2

[26] = system: ABUTH; test: Post-emergence herbicidal action against ABUTH; assay type: in vivo, Abutilon theophrasti; settings: Abutilon theophrasti, 504 h, visual assessment about 3 weeks after treatment vs untreated controls; for pest or weed control at 5 g/ha: dosage 5 g/ha; for pest or weed control at 20 g/ha: dosage 20 g/ha
How it was run: as §2

[27] = system: DIGSA; test: Pre-emergence herbicidal action against DIGSA; assay type: in vivo, Digitaria sanguinalis; settings: Digitaria sanguinalis, 504 h; for pest or weed control at 20 g/ha: dosage 20 g/ha; for pest or weed control at 80 g/ha: dosage 80 g/ha
How it was run: as §1

[28] = system: ABUTH; test: Pre-emergence herbicidal action against ABUTH; assay type: in vivo, Abutilon theophrasti; settings: Abutilon theophrasti, 504 h; for pest or weed control at 80 g/ha: scored visually after 3 weeks vs untreated controls (100% = plants have died, 0% = like control plants); for pest or weed control at 20 g/ha: dosage 20 g/ha, scored visually after 3 weeks vs untreated controls, 100% = plants have died, 0% = like control plants, read-out: Pre-emergence action against ABUTH (herbicidal activity in percent)
How it was run: as §1

[29] = system: POLCO; test: Pre-emergence herbicidal action against POLCO; assay type: in vivo, Polygonum convolvulus; settings: Fallopia convolvulus, 504 h, dosage 80 g/ha
How it was run: as §1

Compound: Cc1c(C(=O)Nc2nnnn2C)ccc(C(F)(F)F)c1C(=O)NC1CC1 [Example 1-27]
- pest or weed control at 20 g/ha [1]: 100%
- pest or weed control at 80 g/ha [1]: 100%
- pest or weed control at 20 g/ha [2]: 80%
- pest or weed control at 20 g/ha [3]: 100%
- pest or weed control at 80 g/ha [3]: 100%
- pest or weed control at 20 g/ha [4]: 80%
- pest or weed control at 20 g/ha [5]: 90%
- pest or weed control at 80 g/ha [5]: 100%
- pest or weed control at 20 g/ha [6]: 100%
- pest or weed control at 80 g/ha [7]: 100%
- pest or weed control at 20 g/ha [8]: 100%
- pest or weed control at 80 g/ha [9]: 90%
- pest or weed control at 20 g/ha [10]: 100%
- pest or weed control at 80 g/ha [10]: 100%
- pest or weed control at 80 g/ha [11]: 100%
- pest or weed control at 20 g/ha [12]: 100%
- pest or weed control at 20 g/ha [13]: 100%
- pest or weed control at 5 g/ha [13]: 100%
- pest or weed control at 20 g/ha [14]: 100%
- pest or weed control at 80 g/ha [14]: 100%
- pest or weed control at 80 g/ha [15]: 80%
- pest or weed control at 20 g/ha ([16]; dosage 20 g/ha): 80%
- pest or weed control at 80 g/ha ([16]; dosage 80 g/ha): 90%
- pest or weed control at 80 g/ha [17]: 100%
- pest or weed control at 5 g/ha [18]: 90%
- pest or weed control at 20 g/ha [18]: 100%
- pest or weed control at 80 g/ha [19]: 80%
- pest or weed control at 20 g/ha [20]: 90%
- pest or weed control at 5 g/ha ([21]; 5 g/ha): 100%
- pest or weed control at 20 g/ha [21]: 100%
- pest or weed control at 20 g/ha [22]: 100%
- pest or weed control at 5 g/ha [23]: 100%
- pest or weed control at 20 g/ha [23]: 100%
- pest or weed control at 5 g/ha [24]: 80%
- pest or weed control at 20 g/ha [24]: 100%
- pest or weed control at 20 g/ha [25]: 90%
- pest or weed control at 5 g/ha [26]: 100%
- pest or weed control at 20 g/ha [26]: 100%
- pest or weed control at 20 g/ha [27]: 100%
- pest or weed control at 80 g/ha [27]: 100%
- pest or weed control at 80 g/ha [28]: 100%
- pest or weed control at 20 g/ha [28]: 100%

Compound: CCNC(=O)c1c(C(F)(F)F)ccc(C(=O)Nc2nnnn2CC)c1C [Example 2-26]
- pest or weed control at 20 g/ha [1]: 80%
- pest or weed control at 80 g/ha [1]: 100%
- pest or weed control at 20 g/ha [2]: 80%
- pest or weed control at 20 g/ha [3]: 100%
- pest or weed control at 80 g/ha [3]: 100%
- pest or weed control at 5 g/ha ([4]; dosage 5 g/ha): 80%
- pest or weed control at 20 g/ha [4]: 80%
- pest or weed control at 20 g/ha [5]: 100%
- pest or weed control at 80 g/ha [5]: 100%
- pest or weed control at 20 g/ha [6]: 80%
- pest or weed control at 80 g/ha [7]: 100%
- pest or weed control at 80 g/ha [9]: 100%
- pest or weed control at 20 g/ha [10]: 100%
- pest or weed control at 80 g/ha [10]: 100%
- pest or weed control at 20 g/ha ([11]; dosage 20 g/ha): 90%
- pest or weed control at 80 g/ha [11]: 100%
- pest or weed control at 20 g/ha [12]: 80%
- pest or weed control at 20 g/ha [13]: 90%
- pest or weed control at 5 g/ha [13]: 80%
- pest or weed control at 20 g/ha [14]: 100%
- pest or weed control at 80 g/ha [14]: 100%
- pest or weed control at 80 g/ha [17]: 100%
- pest or weed control at 20 g/ha ([17]; 20 g/ha, scored visually after 3 weeks, 100% = plants have died, 0% = like control plants): 80%
- pest or weed control at 5 g/ha [18]: 90%
- pest or weed control at 20 g/ha [18]: 90%
- pest or weed control at 80 g/ha [19]: 90%
- pest or weed control at 20 g/ha [20]: 80%
- pest or weed control at 20 g/ha [21]: 80%
- pest or weed control at 20 g/ha [22]: 100%
- pest or weed control at 5 g/ha [23]: 80%
- pest or weed control at 20 g/ha [23]: 100%
- pest or weed control at 5 g/ha [24]: 80%
- pest or weed control at 20 g/ha [24]: 90%
- pest or weed control at 5 g/ha ([25]; dosage 5 g/ha): 80%
- pest or weed control at 20 g/ha [25]: 80%
- pest or weed control at 5 g/ha [26]: 100%
- pest or weed control at 20 g/ha [26]: 100%
- pest or weed control at 80 g/ha [29]: 80%
- pest or weed control at 20 g/ha [27]: 100%
- pest or weed control at 80 g/ha [27]: 100%
- pest or weed control at 80 g/ha [28]: 100%
- pest or weed control at 20 g/ha [28]: 100%
